# Experimental data from article PMC5046073, “Prediction and evaluation of the lipase inhibitory activities of tea polyphenols with 3D-QSAR models” (Scientific Reports, 2016).
# Target: T1, pancreatic lipase (Sus scrofa, UniProt P00591)
# T1 construct: gene PNLIP
# T1 sequence (P00591 1-450): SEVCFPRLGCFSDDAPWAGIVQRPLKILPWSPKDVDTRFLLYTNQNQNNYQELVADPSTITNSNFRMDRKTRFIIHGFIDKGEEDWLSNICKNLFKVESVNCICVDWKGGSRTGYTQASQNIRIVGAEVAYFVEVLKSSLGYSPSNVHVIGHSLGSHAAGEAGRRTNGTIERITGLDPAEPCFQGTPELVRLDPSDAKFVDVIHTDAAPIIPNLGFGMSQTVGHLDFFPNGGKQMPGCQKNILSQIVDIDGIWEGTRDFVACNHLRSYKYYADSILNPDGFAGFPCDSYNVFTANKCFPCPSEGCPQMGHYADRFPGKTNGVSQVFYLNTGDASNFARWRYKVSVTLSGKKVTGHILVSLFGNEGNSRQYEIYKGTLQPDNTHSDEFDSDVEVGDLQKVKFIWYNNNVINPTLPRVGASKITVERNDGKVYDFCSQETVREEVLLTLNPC
# Test: fluorescent 4-MU oleate hydrolysis assay, type VI-S pancreatic lipase
# Format: biochemical
# Details: not given
row,Compound,IC50
1,"O=C(O[C@@H]1Cc2c(O)cc(O)cc2O[C@@H]1c1cc(O)c(O)c(O)c1-c1c([C@H]2Oc3cc(O)cc(O)c3C[C@H]2OC(=O)c2cc(O)c(O)c(O)c2)cc(O)c(O)c1O)c1cc(O)c(O)c(O)c1 [compound 35, theasinensin A]",150 nM
2,"O=C(OC1Cc2c(O)cc(O)c(Cc3c(O)cc(O)c4c3OC(c3cc(O)c(O)c(O)c3)C(OC(=O)c3cc(O)c(O)c(O)c3)C4)c2OC1c1cc(O)c(O)c(O)c1)c1cc(O)c(O)c(O)c1 (centres unmarked) [compound 20, oolonghomobisflavan A]",110 nM
3,(−)-epicatechin-3-O-gallate [compound 4],340 nM
4,"O=C(Oc1cc(O)cc2c1C[C@@H](OC(=O)c1cc(O)c(O)c(O)c1)[C@@H](c1cc(O)c(O)c(O)c1)O2)c1cc(O)c(O)c(O)c1 [compound 8, (−)-epigallocatechin-3,5-di-O-gallate]",110 nM
5,"O=C(O[C@@H]1Cc2c(O)cc(O)cc2O[C@@H]1c1cc(O)c(O)c2c(=O)c(O)cc([C@H]3Oc4cc(O)cc(O)c4C[C@H]3O)cc12)c1cc(O)c(O)c(O)c1 [compound 33, theaflavin-3′-O-gallate]",130 nM
6,"O=C(O[C@@H]1[C@@H](c2c(O)cc(O)c3c2O[C@H](c2cc(O)c(O)c(O)c2)[C@H](OC(=O)c2cc(O)c(O)c(O)c2)C3)c2c(O)cc(O)cc2O[C@@H]1c1cc(O)c(O)c(O)c1)c1cc(O)c(O)c(O)c1 [compound 29, prodelphinidin B2-3,3′-di-O-gallate]",100 nM
7,(−)-epigallocatechin-3-O-gallate [compound 7],390 nM

# Target: T1, pancreatic lipase
# Test: biochemical
# Details: not given
row,Compound,IC50
1,"O=C(O[C@@H]1Cc2c(O)cc(O)cc2O[C@@H]1c1ccc(O)cc1)c1cc(O)c(O)c(O)c1 [compound 15, (−)-epiafzelechin 3-O-gallate]",2810 nM
2,"Oc1cc(O)c2c(c1)O[C@H](c1cc(O)c(O)c(O)c1)[C@H](O)[C@H]2c1c(O)cc(O)c2c1O[C@H](c1cc(O)c(O)c(O)c1)[C@H](O)C2 [compound 27, prodelphinidin B2]",3240 nM
3,"Oc1cc(O)c2c(c1)O[C@H](c1cc(O)c(O)c(O)c1)[C@@H](O)[C@@H]2c1c(O)cc(O)c2c1O[C@H](c1cc(O)c(O)c(O)c1)[C@H](O)C2 [compound 30, prodelphinidin B4]",6850 nM
4,"Oc1cc(O)c2c(c1)O[C@H](c1ccc(O)c(O)c1)[C@H](O)C2 [compound 3, (−)-epicatechin (EC)]",> 30000 nM
5,"Oc1cc(O)c2c(c1)O[C@H](c1ccc(O)c(O)c1)[C@@H](O)[C@@H]2c1c(O)cc(O)c2c1O[C@H](c1ccc(O)c(O)c1)[C@H](O)C2 [compound 25, procyanidin B4]",17300 nM
6,"Oc1cc(O)c2c(c1)O[C@H](c1ccc(O)c(O)c1)[C@H](O)[C@H]2c1c(O)cc(O)c2c1O[C@H](c1ccc(O)c(O)c1)[C@H](O)C2 [compound 23, procyanidin B2]",8750 nM
7,"O=C(O[C@@H]1Cc2c(O)cc(O)cc2O[C@@H]1c1cc(O)c(O)c(O)c1-c1c([C@H]2Oc3cc(O)cc(O)c3C[C@H]2O)cc(O)c(O)c1O)c1cc(O)c(O)c(O)c1 [compound 36, theasinensin B]",300 nM
8,"O=C(/C=C/c1ccc(O)cc1)O[C@@H]1Cc2c(O)cc(O)cc2O[C@@H]1c1cc(O)c(O)c(O)c1 [compound 10, (−)-epigallocatechin-3-O-p-coumaroate]",970 nM
9,"O=C(O[C@@H]1Cc2c(O)cc(O)cc2O[C@H]1c1cc(O)c(O)c(O)c1)c1cc(O)c(O)c(O)c1 [compound 6, (−)-gallocatechin-3-O-gallate (GCG)]",570 nM
10,"Oc1cc(O)c2c(c1)O[C@H](c1cc(O)c(O)c(O)c1-c1c([C@H]3Oc4cc(O)cc(O)c4C[C@H]3O)cc(O)c(O)c1O)[C@H](O)C2 [compound 37, theasinensin C]",16400 nM
11,"COc1cc(C(=O)O[C@@H]2Cc3c(O)cc(O)cc3O[C@@H]2c2ccc(O)c(O)c2)cc(O)c1O [compound 9, (−)-epicatechin 3-O-(3′-O-methyl)-gallat]",740 nM
12,"Oc1cc(O)c2c(c1)O[C@H](c1ccc(O)c(O)c1)[C@@H](O)[C@@H]2c1c(O)cc(O)c2c1O[C@H](c1cc(O)c(O)c(O)c1)[C@H](O)C2 [compound 16, (+)-catechin (4α-8) (−)-epigallocatechin]",8700 nM
13,"Oc1cc(O)c2c(c1)O[C@H](c1ccc(O)c(O)c1)[C@@H](O)[C@@H]2c1c(O)cc(O)c2c1O[C@H](c1ccc(O)c(O)c1)[C@@H](O)C2 [compound 24, procyanidin B3]",3280 nM

# Same assay, conditions: inhibitor
row,Compound,IC50
1,"O=C(O[C@@H]1Cc2c(O)cc(O)c([C@H]3c4c(O)cc(O)cc4O[C@H](c4ccc(O)c(O)c4)[C@@H]3O)c2O[C@@H]1c1cc(O)c(O)c(O)c1)c1cc(O)c(O)c(O)c1 [compound 11, (−)-epicatechin(4β-8)-(−)-epigallocatechin 3-O-gallate]",160 nM
2,"O=C(O[C@@H]1[C@@H](c2c(O)cc(O)c3c2O[C@H](c2cc(O)c(O)c(O)c2)[C@H](OC(=O)c2cc(O)c(O)c(O)c2)C3)c2c(O)cc(O)cc2O[C@@H]1c1ccc(O)c(O)c1)c1cc(O)c(O)c(O)c1 [compound 13, (−)-epicatechin-3-O-gallate-(4β-8)-(−)-epigallocatechin3-O-gallate]",930 nM
3,"O=C(O[C@@H]1[C@@H](c2c(O)cc(O)c3c2O[C@H](c2ccc(O)c(O)c2)[C@H](OC(=O)c2cc(O)c(O)c(O)c2)C3)c2c(O)cc(O)cc2O[C@@H]1c1cc(O)c(O)c(O)c1)c1cc(O)c(O)c(O)c1 [compound 14, (−)-epigallocatechin-3-O-gallate-(4β-8)-(−)-epicatechin 3-O-gallate]",690 nM
4,"O=C(O[C@@H]1Cc2c(O)cc(O)c([C@@H]3c4c(O)cc(O)cc4O[C@H](c4ccc(O)c(O)c4)[C@H]3O)c2O[C@@H]1c1cc(O)c(O)c(O)c1)c1cc(O)c(O)c(O)c1 [compound 17, (+)-catechin (4α-8) (−)-epigallocatechin 3-O-gallate]",190 nM
5,"O=C(O[C@@H]1Cc2c(O)cc(O)c([C@H]3c4c(O)cc(O)cc4O[C@H](c4cc(O)c(O)c(O)c4)[C@@H]3O)c2O[C@@H]1c1ccc(O)c(O)c1)c1cc(O)c(O)c(O)c1 [compound 12, (−)-epigallocatechin (4β-8)-(−)-epicatechin-3-O-gallate]",1230 nM
6,"O=C(OC1Cc2c(O)cc(O)c(C(c3cc(O)c(O)c(O)c3)C(Cc3c(O)cc(O)cc3O)OC(=O)c3cc(O)c(O)c(O)c3)c2OC1c1cc(O)c(O)c(O)c1)c1cc(O)c(O)c(O)c1 (centres unmarked) [compound 1, assamicain A]",130 nM
